Consider 14 compounds from patent US20190010158A1, “ANTITUMOR EFFECT POTENTIATOR COMPRISING PYRROLOPYRIMIDINE COMPOUND” (TAIHO PHARMACEUTICAL CO., LTD, priority 2015, published 2019).

Assay [1] deals with human acute T lymphoblastic leukemia CCRF-CEM cell lines. The experiment in a line: Cell growth inhibition 1 (CellTiter-Glo). The class given is cell-based. The note with it: culture with test compound 72 hours. (In general: Cellular ATP, detected with luciferase, serves as a proxy for viable cell number.)
Assay [2] concerns human multiple myeloma U266B1 cell line. Put plainly: Cell growth inhibition 2, U266B1. The class given is cell-based.
The subject of assay [3] is human prostate cancer LNCAP.FGC cell line. The experiment in a line: Cell growth inhibition 2, LNCaP.FGC. In kind it is cell-based.
Assay [4] relates to human lung cancer A-427 cell line. Put plainly: Cell growth inhibition 2, A-427. The class given is cell-based.
The test system of assay [5] is human diffuse large B-cell lymphoma DB cell line. The experiment in a line: Cell growth inhibition 2, DB. In kind it is cell-based.
Assay [6] relates to human pancreatic cancer Capan-1 cell line. Put plainly: Cell growth inhibition 2, Capan-1. In kind it is cell-based.
The test system of assay [7] is human acute leukemia MV-4-11 cell line. Put plainly: Cell growth inhibition 2, MV-4-11. In kind it is cell-based. The note with it: MV4-11.
Assay [8] relates to human skin cancer A-431 cell line. The experiment in a line: Cell growth inhibition 2, A-431. In kind it is cell-based.
Assay [9] deals with human breast cancer MDA-MB-453 cell line. Put plainly: Cell growth inhibition 2, MDA-MB-453. In kind it is cell-based.
Assay [10] deals with human colon cancer HCT116 cell line. The experiment in a line: Cell growth inhibition 2, HCT116. The conditions noted are these: HCT-116. In kind it is cell-based.
Assay [11] concerns human osteo- and soft tissue sarcoma SJCRH30 cell line. Put plainly: Cell growth inhibition 2, SJCRH30. The class given is cell-based.
The subject of assay [12] is tumor cell lines shown in Table 30. The experiment in a line: Example 5: combined use with steroid, cell growth inhibition test (IC50 ratio, CI). The note with it: MM.1S; for IC50 Ratio: IC50 of Reference Example Compound 55 : IC50 of other compound = 1:value; for CI: at ED50; for Comprehensive Evaluation: combined use with Reference Example Compound 55.
Assay [13] deals with U266B1. The experiment in a line: Example 1: combined use with proteasome inhibitor, cell growth inhibition test (IC50 ratio, CI), U266B1. The class given is cell-based, human. The note with it: for CI: at ED50.
For assay [14], the system named is tumor cell lines shown in Table 46. Put plainly: Example 13: combined use with microtubule inhibitor, cell growth inhibition test (IC50 ratio, CI). The class given is cell-based. The note with it: A549; for IC50 Ratio: IC50 of Reference Example Compound 55 : IC50 of other compound = 1:value; for CI: at ED50; for Comprehensive Evaluation: combined use with Reference Example Compound 55.

The subject of assay [15] is tumor cell lines shown in Table 50. The experiment in a line: Example 15: combined use with anthracycline-based antitumor agent, cell growth inhibition test (IC50 ratio, CI). The conditions noted are these: for IC50 Ratio: IC50 of Reference Example Compound 55 : IC50 of other compound = 1:value; for CI: at ED50; for Comprehensive Evaluation: combined use with Reference Example Compound 55.

In assay [16] the test system is tumor cell lines shown in Table 32. Put plainly: Example 6: combined use with immunomodulator, cell growth inhibition test (IC50 ratio, CI). The class given is cell-based. The note with it: MM.1S.
Where [17] appears, read: IC50 of Reference Example Compound 55 : IC50 of other compound = 1:value.
The mark [18] stands for this setting: combined use with Reference Example Compound 55.

A word on the IC50: it is the concentration that inhibits the measured activity by half. Higher therefore signals a need for much substance. For `CSc1cccc(F)c1C#Cc1cn([C@@H]2C=C(CNS(N)(=O)=O)[C@@H](O)[C@H]2O)c2ncnc(N)c12` [Reference Example 130, 4-Amino-7-[(1R,4R,5S)-4,5-dihydroxy-3-[(sulfamoylamino)methyl]cyclopent-2-en-1-yl]-5-[2-(2-fluoro-6-methylsulfanyl-phenyl)ethynyl]pyrrolo[2,3-d]pyrimidine], the 50% inhibitory concentration (IC50) was determined as 3.2 nM in assay [1]; 24 nM in [2]; 460 nM in [3]; 6.4 nM in [4]; 130 nM in [5]; 210 nM in [6]. Also, the IC50 in assay [7] was found to be 25 nM; in assay [8] it was 160 nM; in assay [9], 32 nM; in [10], 12 nM; in assay [11], 170 nM.
Take `C[C@]12C=CC(=O)C=C1CC[C@@H]1[C@@H]2[C@@H](O)C[C@@]2(C)[C@H]1CC[C@]2(O)C(=O)CO` [Prednisolone, prednisolone]: in assay [12], the “IC50 Ratio” value was 8.3 and the “Comprehensive Evaluation” value was “Synergism (0.3-0.7)”. Further, the CI in assay [12] (Reference Example Compound 55:other compound 1:3.3) turned out to be 0.54. In addition, the CI in [12] (Reference Example Compound 55:other compound 1:10) came out at 0.44.
As for `CN1CCOc2c1ccc(F)c2C#Cc1cn([C@@H]2C[C@H](CNS(N)(=O)=O)[C@@H](O)[C@H]2O)c2ncnc(N)c12` [Reference Example 122, 8-[2-[4-amino-7-[(1R,2S,3R,4R)-2,3-dihydroxy-4-[(sulfamoylamino)methyl]cyclopentyl]pyrrolo[2,3-d]pyrimidin-5-yl]ethynyl]-7-fluoro-4-methyl-2,3-dihydro-1,4-benzoxazine], the IC50 in assay [1] is 8.8 nM; in assay [2] it was 270 nM; in assay [3] it was 510 nM; in assay [4], 22 nM; in [5] it was 120 nM; in assay [6] it was 890 nM. Further, the IC50 in assay [7] was determined as 38 nM; in assay [8], 1600 nM; in [9], 76 nM; in [10], 18 nM; in [11], 130 nM.
`C[C@@H]1C[C@H]2[C@@H]3CCC4=CC(=O)C=C[C@]4(C)[C@@]3(F)[C@@H](O)C[C@]2(C)[C@@]1(O)C(=O)CO` [Dexamethasone, dexamethasone]: in assay [12], the “IC50 Ratio” value was found to be 0.4. Further, the CI in assay [12] (Reference Example Compound 55:other compound 1:0.3) is listed as 0.51; in assay [12] (Reference Example Compound 55:other compound 1:1) it was 0.39. In addition, the “Comprehensive Evaluation” value in assay [12] was “Synergism (0.3-0.7)”.
For `CC(C)C[C@H](NC(=O)[C@H](CCc1ccccc1)NC(=O)CN1CCOCC1)C(=O)N[C@@H](Cc1ccccc1)C(=O)N[C@@H](CC(C)C)C(=O)[C@@]1(C)CO1` [Carfilzomib, carfilzomib], the “IC50 Ratio” value in assay [13] (setting [17]) is on record as 0.30. The figures for the CI in assay [13] (Reference Example Compound 55:other compound 1:015) and in assay [13] (Reference Example Compound 55:other compound 1:045) were 0.64 and 0.66, respectively. In addition, the “Comprehensive Evaluation” value in assay [13] (setting [18]) is “Synergism (0.3-0.7)”.
As for `CC(=O)O[C@H]1C(=O)[C@@]2(C)[C@H]([C@H](OC(=O)c3ccccc3)[C@]3(O)C[C@H](OC(=O)[C@H](O)[C@@H](NC(=O)c4ccccc4)c4ccccc4)C(C)=C1C3(C)C)[C@]1(OC(C)=O)CO[C@@H]1C[C@@H]2O` [Paclitaxel, paclitaxel], in [14], the “IC50 Ratio” value is 0.04 and the “Comprehensive Evaluation” value was “Additive (0.9-1.10)”. Further, the CI in assay [14] (Reference Example Compound 55:other compound 1:0.02) was 0.98. Also, the CI in assay [14] (Reference Example Compound 55:other compound 1:0.06) was determined as 0.77.
On to `C=C1C[C@@H]2CC[C@@]34C[C@H]5O[C@H]6[C@@H](O3)[C@H]3O[C@H](CC[C@@H]3O[C@H]6[C@H]5O4)CC(=O)C[C@@H]3[C@@H](OC)[C@@H](C[C@H](O)CN)O[C@H]3C[C@H]3O[C@@H](CC[C@@H]1O2)C[C@@H](C)C3=C` [Eribulin, eribulin], for which the “IC50 Ratio” value in assay [14] worked out at 0.01. Besides, the CI amounted to 1.02 in [14] (Reference Example Compound 55:other compound 1:0.01) and 0.89 in assay [14] (Reference Example Compound 55:other compound 1:0.03). In addition, the “Comprehensive Evaluation” value in assay [14] was “Additive (0.9-1.10)”.
Regarding `NS(=O)(=O)OC[C@@H]1C[C@@H](n2ccc3c(N[C@H]4CCc5ccccc54)ncnc32)CC1O` (stereo partly drawn) [Comp. Example, N-[(1S)-1-indanyl]-7-[(1R)-3α-hydroxy-4α-(sulfamoyloxymethyl)cyclopentyl]-7H-pyrrolo[2,3-d]pyrimidin-4-amine], the half-maximal inhibitory concentration (IC50) was 89 nM in assay [1]; 1400 nM in assay [2]; 410 nM in assay [3]; 180 nM in [4]; 560 nM in [5]; 1500 nM in [6]. In addition, the IC50 in assay [7] stood at 110 nM; in [8], 750 nM; in assay [9], 1900 nM; in [10], 89 nM.
Take `CN1CCOc2c1ccc(F)c2C#Cc1cn([C@@H]2O[C@H](CNS(N)(=O)=O)[C@@H](O)[C@H]2O)c2ncnc(N)c12` [Reference Example 64, 8-[2-[4-Amino-7-[(2R,3R,4S,5R)-3,4-dihydroxy-5-[(sulfamoylamino)methyl]tetrahydrofuran-2-yl]pyrrolo[2,3-d]pyrimidin-5-yl]ethynyl]-7-fluoro-4-methyl-2,3-dihydro-1,4-benzoxazine]: the IC50 in [1] is 5.8 nM; in assay [3] it was 680 nM; in assay [4] it was 91 nM; in assay [5] it was 110 nM; in [6], 1200 nM; in [7], 32 nM. The IC50 was 710 nM in assay [8], 140 nM in assay [9], 14 nM in assay [10] and 560 nM in assay [11].
As to `COc1cccc2c1C(=O)c1c(O)c3c(c(O)c1C2=O)C[C@@](O)(C(=O)CO)C[C@@H]3O[C@H]1C[C@H](N)[C@H](O)[C@H](C)O1` [Doxorubicin, doxorubicin], in [15] (HOS), the “IC50 Ratio” value is listed as 2 and the “Comprehensive Evaluation” value was “Moderate”. In assay [15] (HOS, Reference Example Compound 55:other compound 1:1.7), the CI stood at 0.77. In assay [15] (HOS, Reference Example Compound 55:other compound 1:5), the CI came to 0.61.
Turning to `NCCNc1ccc(NCCN)c2c1C(=O)c1ccncc1C2=O` [Pixantrone, pixantrone], the “IC50 Ratio” value in [15] (MM.1S) was found to be 8.4. Also, the CI turned out to be 0.73 in assay [15] (MM.1S, Reference Example Compound 55:other compound 1:3.7) and 0.84 in [15] (MM.1S, Reference Example Compound 55:other compound 1:11). Further, the “Comprehensive Evaluation” value in [15] (MM.1S) is given as “Moderate”.
As for `Nc1ncnc2c1c(C#Cc1c(F)cc(N3CC[C@@H](F)C3)cc1F)cn2[C@@H]1O[C@H](CNS(N)(=O)=O)[C@@H](O)[C@H]1O` [Reference Example 29, 4-Amino-5-[2-[2,6-difluoro-4-[(3R)-3-fluoropyrrolidin-1-yl]phenyl]ethynyl]-7-[(2R,3R,4S,5R)-3,4-dihydroxy-5-[(sulfamoylamino)methyl]tetrahydrofuran-2-yl]pyrrolo[2,3-d]pyrimidine], the IC50 in assay [1] is 4 nM; in [2], 420 nM; in assay [3] it was 280 nM; in assay [4], 49 nM; in assay [5] it was 150 nM; in assay [6], 560 nM. Moreover, the IC50 is 20 nM in assay [7]; 560 nM in assay [8]; 640 nM in assay [9]; 14 nM in assay [10]; 6600 nM in assay [11].
On to `CNc1cc(F)c(C#Cc2cn([C@@H]3O[C@H](CNS(N)(=O)=O)[C@@H](O)[C@H]3O)c3ncnc(N)c23)c(F)c1` [Reference Example 25, 4-Amino-5-[2-[2,6-difluoro-4-(methylamino)phenyl]ethynyl]-7-[(2R,3R,4S,5R)-3,4-dihydroxy-5-[(sulfamoylamino)methyl]tetrahydrofuran-2-yl]pyrrolo[2,3-d]pyrimidine], for which the IC50 in [1] came to 1.7 nM; in assay [2] it was 220 nM; in assay [3], 500 nM; in [4] it was 5.4 nM; in [5], 120 nM; in assay [6] it was 380 nM. In addition, the IC50 in assay [7] was found to be 11 nM; in assay [8] it was 120 nM; in assay [9] it was 480 nM; in assay [10] it was 6.4 nM; in [11], 5100 nM.
Regarding `O=C1CCC(N2C(=O)c3ccccc3C2=O)C(=O)N1` (centres unmarked) [Thalidomide, thalidomide], the “IC50 Ratio” value in assay [16] (setting [17]) is 6603. Further, the CI in assay [16] (Reference Example Compound 55:other compound 1:900 (only ratio calculated), at ED50) is reported as 0.63. In addition, the “Comprehensive Evaluation” value in [16] (setting [18]) is on record as “Synergism (0.3-0.7)”.
